Measurements as given in patent publication US4504469A, “Vasotocin derivatives” (priority 1982, dated 1985).
Like-named read-outs stand apart in the source and are kept apart here. Where a SMILES comes first, the peptide text is derived from it. Bridges are numbered along the chain shown (N, C = ends). [ ]: non-standard residue; d: D form. Cit = NC(=O)NCCC[C@H](N)C(=O)O; Orn = NCCC[C@H](N)C(=O)O; Mpa = O=C(O)CCS

What was measured:
isolated rat uterus = type: cell-based
Method: The compounds according to the invention were investigated with regard to uterotonic potency on isolated rat uterus, using oxytocin as standard. The antagonistic properties of the compounds were also evaluated with the aid of this preparation. Also in vivo tests using oxytocin as the agonist were carried out, the results being compared with those obtained with Antocin.
Sprague Dawley rats (body weight approximately 250 g) in natural estrous were selected by vaginal smears. An approximately 20 mm long segment was cut from the middle of a uterine horn and mounted in an organ bath containing 10 ml of a modified Locke's solution of the following composition (mM:NaCl 153, KCl 5.63, CaCl2 0.541, NaHCO3 5.95 and glucose 2.78). The solution was gassed with 5% CO2 in oxygen at 30° C. The uterine contractions were allowed to stabilize for 30 min. Contractions were recorded isometrically at a resting tension of 1.5 g using Grass force transducers (Ft. 03). The antagonistic potency of the analogs was calculated as pA2 values (Rudinger, J. & Krejci, I. Experientia 18, (1962), 585-588). pA2 is a measure of the inhibitory effect of the peptide and was defined by Schild (Schild, H. O., British Journal of Pharmacology, 2, (1947), 189-206) as the negative logarithm of the molar concentration of an antagonist which reduces the effect of a dose of agonist to that of half the dose. The agonistic effects, if any, of the antagonists were investigated by adding to the bath containing the uterus preparation a varying amount of peptide corresponding at most to a concentration of 4 μg per ml.

Antidiuretic effect (AD) = assay: Antidiuretic effect (AD); set-up: unit not given here
rat uterus in vivo = assay: In vivo inhibition of oxytocin-induced uterus contractions in rats, compared with Antocin; settings: anaesthetized rats, oxytocin infusion i.v., antagonist 0.8-8.0 μg/100 g i.v.; Antocin given the value 1
Method: Sprague Dawley rats (250 g) in natural estrous were anaesthetized with Inactin (0.5 mg/100 g body weight i.p.). Myometrial activity was recorded by means of a catheter fixed in the uterine cavity and filled with modified Locke's solution. The catheter was connected to a Statham P23d transducer, and contractions were recorded on a Grass polygraph (model 7d). Oxytocin was infused intravenously (0.05 μg/min/100 g body weight). When a regular contraction pattern had been obtained, the antagonist (0.8-8.0 μg/100 g body weight) was administered intravenously in a volume of 0.2 ml. The recorded curve was integrated over 15 min intervals immediately before and after injection of the antagonist. The inhibition of the increase in the magnitude of the uterus contractions caused by oxytocin infusion were compared with the inhibition of the Antocin which was given the value 1.

[1] = Pressor effect (effect on the blood pressure); set-up: reference not given here
[2] = isolated rat uterus, oxytocin as agonist, 30° C.

Compound	Uterus in vitro antagonist pA2 (isolated rat uterus)	Uterus in vitro antagonist pA2 (isolated rat uterus; [2])	AD (antidiuretic effect) (Antidiuretic effect (AD))	Uterus in vivo, compared with Antocin (rat uterus in vivo)	Pressor (effect on the blood pressure) [1]	Type of inhibition of the oxytocin effect (isolated rat uterus)
CCOc1ccc(C[C@H]2NC(=O)CCSSC[C@@H](C(=O)N3CCC[C@H]3C(=O)N[C@@H](CCCN)C(=O)NCC(N)=O)NC(=O)[C@H](CC(N)=O)NC(=O)[C@H](C(C)C)NC(=O)[C@H]([C@@H](C)CC)NC2=O)cc1 [Example 10, 1-β-mercaptopropionic acid-2-(4-ethoxy)-D-phenyl alanine-4-valine-8-ornithine vasotocin] ([Mpa][dY](Et)IVNCP[Orn]G-NH2; disulfide 1-6)	7.9					
CCOc1ccc(C[C@@H]2NC(=O)CCSSC[C@@H](C(=O)N3CCC[C@H]3C(=O)N[C@@H](CCCNC(=N)N)C(=O)NCC(N)=O)NC(=O)[C@H](CC(N)=O)NC(=O)[C@H]([C@@H](C)O)NC(=O)[C@H]([C@@H](C)CC)NC2=O)cc1 [Example 5, 1-β-mercaptopropionic acid-2-(4-ethoxy)-phenyl alanine-4-treonine-8-arginine vasotocin] ([Mpa]Y(Et)ITNCPRG-NH2; disulfide 1-6)		8.0				
CCOc1ccc(C[C@H]2NC(=O)CCSSC[C@@H](C(=O)N3CCC[C@H]3C(=O)N[C@H](CCCNC(=N)N)C(=O)NCC(N)=O)NC(=O)[C@H](CC(N)=O)NC(=O)[C@H](C(C)C)NC(=O)[C@H]([C@@H](C)CC)NC2=O)cc1 [Example 9, 1-β-mercaptopropionic acid-2-(4-ethoxy)-D-phenyl alanine-4-valine-8-D-arginine vasotocin] ([Mpa][dY](Et)IVNCP[dR]G-NH2; disulfide 1-6)	8.6					
CCOc1ccc(C[C@@H]2NC(=O)CCSSC[C@@H](C(=O)N3CCC[C@H]3C(=O)N[C@@H](CCCN)C(=O)NCC(N)=O)NC(=O)[C@H](CC(N)=O)NC(=O)[C@H](C(C)C)NC(=O)[C@H]([C@@H](C)CC)NC2=O)cc1 [Example 6, 1-β-mercaptopropionic acid-2-(4-ethoxy)-phenyl alanine-4-valine-8-ornithine vasotocin] ([Mpa]Y(Et)IVNCP[Orn]G-NH2; disulfide 1-6)	7.6					
1-β-mercaptopropionic acid-2-(4-ethoxy)-D-phenyl alanine-8-arginine vasotocin [Example 7]		8.4	37.9	2	2.5	
CCOc1ccc(C[C@@H]2NC(=O)CCSSC[C@@H](C(=O)N3CCC[C@H]3C(=O)N[C@@H](CCCN)C(=O)NCC(N)=O)NC(=O)[C@H](CC(N)=O)NC(=O)[C@H](CCC(N)=O)NC(=O)[C@H]([C@@H](C)CC)NC2=O)cc1 [Example 1, 1-β-mercaptopropionic acid-2-(4-ethoxy)-phenyl alanine-8-ornithine-vasotocin] ([Mpa]Y(Et)IQNCP[Orn]G-NH2; disulfide 1-6)	8.4					
CC[C@H](C)[C@@H]1NC(=O)[C@@H](Cc2c[nH]c3ccccc23)NC(=O)CCSSC[C@@H](C(=O)N2CCC[C@H]2C(=O)N[C@@H](CCCN)C(=O)NCC(N)=O)NC(=O)[C@H](CC(N)=O)NC(=O)[C@H]([C@@H](C)O)NC1=O [Example 15, 1-β-mercaptopropionic acid-2-D-tryptophane-4-treonine-8-ornithine vasotocin] ([Mpa][dW]ITNCP[Orn]G-NH2; disulfide 1-6)	8.5		0.1	7.8	0.05	
CCOc1ccc(C[C@H]2NC(=O)CCSSC[C@@H](C(=O)N3CCC[C@H]3C(=O)N[C@@H](CCCN)C(=O)NCC(N)=O)NC(=O)[C@H](CC(N)=O)NC(=O)[C@H]([C@@H](C)O)NC(=O)[C@H]([C@@H](C)CC)NC2=O)cc1 [Antocin, 1-desamino-(2-0-ethyltyrosine)-oxytocin, reference compound] ([Mpa][dY](Et)ITNCP[Orn]G-NH2; disulfide 1-6)		7.2	< 0.2	1	< 0.1	competitive inhibition
CCOc1ccc(C[C@H]2NC(=O)CCSSC[C@@H](C(=O)N3CCC[C@H]3C(=O)N[C@@H](CCCN)C(=O)NCC(N)=O)NC(=O)[C@H](CC(N)=O)NC(=O)[C@H]([C@@H](C)O)NC(=O)[C@H]([C@@H](C)CC)NC2=O)cc1 [Example 11, 1-β-mercaptopropionic acid-2-(4-ethoxy)-D-phenyl alanine-4-treonine-8-ornithine vasotocin] ([Mpa][dY](Et)ITNCP[Orn]G-NH2; disulfide 1-6)		8.3				
CCOc1ccc(C[C@H]2NC(=O)CCSSC[C@@H](C(=O)N3CCC[C@H]3C(=O)N[C@@H](CCCNC(=N)N)C(=O)NCC(N)=O)NC(=O)[C@H](CC(N)=O)NC(=O)[C@H](CCC(N)=O)NC(=O)[C@H]([C@@H](C)CC)NC2=O)cc1 [Example 2, 1-β-mercaptopropionic acid-2-(4-ethoxy)-D-phenyl alanine-8-arginine vasotocin] ([Mpa][dY](Et)IQNCPRG-NH2; disulfide 1-6)		8.7				
CC[C@H](C)[C@@H]1NC(=O)[C@@H](Cc2ccc(O)cc2)NC(=O)CCSSC[C@@H](C(=O)N2CCC[C@H]2C(=O)N[C@@H](CCCN)C(=O)NCC(N)=O)NC(=O)[C@H](CC(N)=O)NC(=O)[C@H](C(C)C)NC1=O [Example 13, 1-β-mercaptopropionic acid-2-D-tyrosine-4-valine-8-ornithine vasotocin] ([Mpa][dY]IVNCP[Orn]G-NH2; disulfide 1-6)	8.2		1.2	4.4	0.6	
CCOc1ccc(C[C@@H]2NC(=O)CCSSC[C@@H](C(=O)N3CCC[C@H]3C(=O)N[C@@H](CCCNC(=N)N)C(=O)NCC(N)=O)NC(=O)[C@H](CC(N)=O)NC(=O)[C@H](C(C)C)NC(=O)[C@H]([C@@H](C)CC)NC2=O)cc1 [Example 4, 1-β-mercaptopropionic acid-2-(4-ethoxy)-phenyl alanine-4-valine-8-arginine vasotocin] ([Mpa]Y(Et)IVNCPRG-NH2; disulfide 1-6)	8.5					
CC[C@H](C)[C@@H]1NC(=O)[C@@H](Cc2c[nH]c3ccccc23)NC(=O)CCSSC[C@@H](C(=O)N2CCC[C@H]2C(=O)N[C@@H](CCCNC(=N)N)C(=O)NCC(N)=O)NC(=O)[C@H](CC(N)=O)NC(=O)[C@H](C(C)C)NC1=O [Example 8, 1-β-mercaptopropionic acid-2-D-tryptophane-4-valine-8-arginine vasotocin] ([Mpa][dW]IVNCPRG-NH2; disulfide 1-6)	8.4		0.1	11	0.12	
CC[C@H](C)[C@@H]1NC(=O)[C@@H](Cc2c[nH]c3ccccc23)NC(=O)CCSSC[C@@H](C(=O)N2CCC[C@H]2C(=O)N[C@@H](CCCN)C(=O)NCC(N)=O)NC(=O)[C@H](CC(N)=O)NC(=O)[C@H](C(C)C)NC1=O [Example 14, 1-β-mercaptopropionic acid-2-D-tryptophane-4-valine-8-ornithine vasotocin] ([Mpa][dW]IVNCP[Orn]G-NH2; disulfide 1-6)	7.9		0.03	17.9	0.03	
CC[C@H](C)[C@@H]1NC(=O)[C@@H](Cc2c[nH]c3ccccc23)NC(=O)CCSSC[C@@H](C(=O)N2CCC[C@H]2C(=O)N[C@H](CCCNC(=N)N)C(=O)NCC(N)=O)NC(=O)[C@H](CC(N)=O)NC(=O)[C@H]([C@@H](C)O)NC1=O [Example 12, 1-β-mercaptopropionic acid-2-D-tryptophane-4-treonine-8-D-arginine vasotocin] ([Mpa][dW]ITNCP[dR]G-NH2; disulfide 1-6)		8.0	0.1	6.3	0.12	
CCOc1ccc(C[C@@H]2NC(=O)CCSSC[C@@H](C(=O)N3CCC[C@H]3C(=O)N[C@@H](CCCNC(N)=O)C(=O)NCC(N)=O)NC(=O)[C@H](CC(N)=O)NC(=O)[C@H](CCC(N)=O)NC(=O)[C@H]([C@@H](C)CC)NC2=O)cc1 [Example 3, 1-β-mercaptopropionic acid-2-(4-ethoxy)-phenyl alanine-8-citrullin vasotocin] ([Mpa]Y(Et)IQNCP[Cit]G-NH2; disulfide 1-6)	8.5					
